Six compounds from paper PMC7689250, “Synthetic Peptide Libraries Designed From a Minimal Alpha-Helical Domain of AS-48-Bacteriocin Homologs Exhibit Potent Antibacterial Activity” (Frontiers in Microbiology, 2020) can be followed below.

Read-outs that look alike come from different tables or passages of the source. Residues, ends and D or L forms follow the SMILES beside them. Some results are limits rather than exact numbers.

The test system of one series is E. coli (BL21). Type of series: cell-based, Escherichia coli. Here is the method: (§1) Peptides were screened against Escherichia coli (BL21), Streptococcus pyogenes (M1T1 5448, hereby referred to as M1), Pseudomonas aeruginosa (PAO1), and Staphylococcus aureus (USA300). Overnight bacterial cultures were grown in optimal media for each species: Luria-Bertani (LB) broth for E. coli, P. aeruginosa, and S. aureus, and Todd-Hewitt (TH) broth for S. pyogenes. Cultures were pelleted and re-suspended in Mueller-Hinton (MH) broth for peptide screens or minimal inhibitory concentration (MIC) assays, with 1 × 10^6 CFU/mL bacteria added per well ([Wiegand et al., 2008]). MICs for each parent peptide were identified against each bacterial strain as previously described ([Fields et al., 2018]). Members of each peptide library were screened against each bacterial strain at half of the MIC of the corresponding parent peptide to identify library members with increased antimicrobial activity relative to the parent peptide. […] Minimal bactericidal concentrations (MBCs) were determined following the respective MIC assays by plating aliquots from wells corresponding to each peptide concentration from the 96-well plate used for the MIC on species-appropriate agar. Plates were incubated at 37°C overnight, and MBCs were identified as the lowest concentrations of peptide at which no colonies were obtained. A Synergy H1 Microplate Reader (BioTek, Winooski, VT, United States) was used to determine the MICs and identify peptides with greater antimicrobial activity than the corresponding parent peptide by measuring OD 600 of the bacterial cultures in 96-well microtiter plates.

The next series has as its system S. pyogenes (M1). Type of series: cell-based, Streptococcus pyogenes. The settings on record: for MBC: M1. Here is the method:
as §1

The subject of the next series is S. aureus (USA300). The series is classed as cell-based, Staphylococcus aureus. Here is the method: as §1
A further series has as its system P. aeruginosa (PAO1). The series is classed as cell-based, Pseudomonas aeruginosa. Conditions: for MBC: PAO1; for MIC: PAO1, 16 h. Here is the method: as §1
Another series relates to sheep erythrocytes. Type of series: cell-based. The settings on record: red cells of sheep, 1 h. As to the method:
To determine if peptide variants were hemolytic, fresh defibrinated whole sheep blood (Hardy Diagnostics) was washed three times in cold PBS, and washed blood was diluted 1:25 in PBS. Treatments were applied at a 1:10 ratio of sample:blood, where the sample was either 10% Triton, PBS, or a specific peptide concentration corresponding to concentrations used in the MIC assays. Treatments were incubated with the blood for 1 h at 37°C. Following incubation, samples were centrifuged at […] for 10 min at 4°C, and the absorbance of the supernatants at 450 nm was measured on the Synergy H1 Microplate Reader to measure the release of hemoglobin. Percent hemolysis was quantified by normalizing to the negative and positive controls.

`CC[C@H](C)[C@H](NC(=O)[C@H](CCCCN)NC(=O)[C@H](C)NC(=O)[C@H](CCCNC(=N)N)NC(=O)[C@H](CCCCN)NC(=O)CNC(=O)[C@H](CCCCN)NC(=O)[C@H](CCC(=O)O)NC(=O)[C@H](CCC(N)=O)NC(=O)[C@@H](NC(=O)[C@@H](NC(=O)[C@H](CCCCN)NC(=O)[C@H](CCCCN)NC(=O)[C@H](CC(C)C)NC(=O)[C@H](Cc1ccccc1)NC(=O)[C@H](CCC(N)=O)NC(=O)[C@H](CCCNC(=N)N)NC(=O)[C@@H](NC(=O)[C@@H](NC(=O)[C@H](CCC(=O)O)NC(=O)[C@H](CCCCN)NC(=O)CNC(=O)[C@H](C)N)[C@@H](C)O)[C@@H](C)CC)[C@@H](C)O)[C@@H](C)CC)C(=O)N[C@@H](Cc1c[nH]c2ccccc12)C(=O)N[C@@H](Cc1c[nH]c2ccccc12)C(=O)O` [Syn-larvacin-69] (H-AGKETIRQFLKKTIQEKGKRAKIWW-OH; N-terminus and C-terminus assumed): the MBC in the series on E. coli (BL21) (BL21) was determined as 16 µM; in the series with S. pyogenes (M1), 0.5 µM; with S. aureus (USA300) (USA300), 16 µM; in the series on P. aeruginosa (PAO1) it was 32 µM. The MIC in the series with E. coli (BL21) (BL21, 16 h) came to 2 µM; with S. pyogenes (M1) (S. pyogenes M1), 0.125 µM; in the series on S. aureus (USA300) (USA300, 16 h), 16 µM; in the series with P. aeruginosa (PAO1), 32 µM. Further, the “Percent Hemolysis” value with sheep erythrocytes was 12.5%.
Turning to `CC[C@H](C)[C@H](NC(=O)[C@H](CCCCN)NC(=O)[C@H](CCCCN)NC(=O)CNC(=O)[C@H](CCC(=O)O)NC(=O)[C@H](CCC(N)=O)NC(=O)[C@@H](NC(=O)[C@@H](NC(=O)[C@H](CCCCN)NC(=O)[C@H](CCCCN)NC(=O)[C@H](CC(C)C)NC(=O)[C@H](CCCNC(=N)N)NC(=O)[C@H](CCC(N)=O)NC(=O)[C@H](Cc1ccccc1)NC(=O)[C@@H](NC(=O)[C@H](CCCCN)NC(=O)[C@H](CCC(=O)O)NC(=O)[C@@H](NC(=O)CNC(=O)[C@H](C)N)[C@@H](C)O)[C@@H](C)CC)[C@@H](C)O)[C@@H](C)CC)C(=O)N[C@@H](C)C(=O)N[C@@H](CCCCN)C(=O)N[C@@H](CCCNC(=N)N)C(=O)N[C@@H](Cc1c[nH]c2ccccc12)C(=O)N[C@@H](Cc1c[nH]c2ccccc12)C(=O)O` [Syn-larvacin-71] (H-AGTEKIFQRLKKTIQEGKKIAKRWW-OH; N-terminus and C-terminus assumed), the MBC was 0.25 µM with E. coli (BL21) (E. coli BL21), 0.125 µM with S. pyogenes (M1), less than 0.25 µM in the series with S. aureus (USA300) (USA300) and 32 µM with P. aeruginosa (PAO1). For the same compound, the MIC in the series with E. coli (BL21) (E. coli BL21) is 0.25 µM; in the series on S. pyogenes (M1) (S. pyogenes M1) it was 0.125 µM; with S. pyogenes (M1) (S. pyogenes M1, running text b43, unit printed nm), 0.125 µM; in the series with S. aureus (USA300) (USA300) it was 0.25 µM; with S. aureus (USA300) (USA300, 16 h) it was less than 0.25 µM; with P. aeruginosa (PAO1) it was 16 µM. The “Percent Hemolysis” value in the series with sheep erythrocytes is given as 20.6%.
For `CC[C@H](C)[C@H](NC(=O)[C@H](CCCCN)NC(=O)[C@H](CCCCN)NC(=O)CNC(=O)[C@H](CCC(=O)O)NC(=O)[C@H](CC(N)=O)NC(=O)[C@@H](NC(=O)[C@@H](NC(=O)[C@H](CCCCN)NC(=O)[C@H](CCCCN)NC(=O)[C@H](CC(C)C)NC(=O)[C@H](CCCNC(=N)N)NC(=O)[C@H](CC(N)=O)NC(=O)[C@H](Cc1ccccc1)NC(=O)[C@@H](NC(=O)[C@H](CCCCN)NC(=O)[C@H](CCC(=O)O)NC(=O)[C@@H](NC(=O)CNC(=O)[C@H](C)N)[C@@H](C)O)[C@@H](C)CC)[C@@H](C)O)[C@@H](C)CC)C(=O)N[C@@H](C)C(=O)N[C@@H](CCCCN)C(=O)N[C@@H](CCCNC(=N)N)C(=O)N[C@@H](Cc1c[nH]c2ccccc12)C(=O)N[C@@H](Cc1c[nH]c2ccccc12)C(=O)O` [Syn-larvacin-72] (H-AGTEKIFNRLKKTINEGKKIAKRWW-OH; N-terminus and C-terminus assumed), the MBC with E. coli (BL21) (BL21) was 0.25 µM; in the series with S. pyogenes (M1) it was 2 µM; in the series with S. aureus (USA300) (USA300), greater than 128 µM; with P. aeruginosa (PAO1) it was 64 µM. Moreover, the MIC in the series on E. coli (BL21) (BL21, 16 h) was 0.25 µM; with S. pyogenes (M1) (S. pyogenes M1), 0.125 µM; in the series with S. aureus (USA300) (USA300, 16 h) it was greater than 128 µM; with P. aeruginosa (PAO1), 32 µM. Besides, in the series on sheep erythrocytes, the “Percent Hemolysis” value is given as 26.3%.
As for `CC[C@H](C)[C@H](NC(=O)[C@H](CCCCN)NC(=O)[C@H](C)NC(=O)[C@H](CCCNC(=N)N)NC(=O)[C@H](CCCCN)NC(=O)CNC(=O)[C@H](CCCCN)NC(=O)[C@H](CCC(=O)O)NC(=O)[C@H](CCC(N)=O)NC(=O)[C@@H](NC(=O)[C@H](CCCCN)NC(=O)[C@H](CCCCN)NC(=O)[C@H](CCCCN)NC(=O)[C@H](CC(C)C)NC(=O)[C@H](CCCNC(=N)N)NC(=O)[C@H](CCC(N)=O)NC(=O)[C@H](Cc1ccccc1)NC(=O)[C@@H](NC(=O)[C@@H](NC(=O)[C@H](CCC(=O)O)NC(=O)[C@H](CCCCN)NC(=O)CNC(=O)[C@H](C)N)[C@@H](C)O)[C@@H](C)CC)[C@@H](C)CC)C(=O)N[C@@H](C)C(=O)N[C@@H](Cc1c[nH]c2ccccc12)C(=O)O` [Syn-larvacin-91] (H-AGKETIFQRLKKKIQEKGKRAKIAW-OH; N-terminus and C-terminus assumed), the MBC is 2 µM in the series on E. coli (BL21) (BL21), 0.5 µM in the series with S. pyogenes (M1), 2 µM in the series on S. aureus (USA300) (USA300) and 64 µM in the series on P. aeruginosa (PAO1). For the same compound, the MIC in the series on E. coli (BL21) (BL21, 16 h) turned out to be 1 µM; in the series with S. pyogenes (M1) (M1, 16 h), 0.5 µM; with S. aureus (USA300) (USA300, 16 h) it was 2 µM; in the series on P. aeruginosa (PAO1), 32 µM. For the same compound, the “Percent Hemolysis” value in the series on sheep erythrocytes was 23.4%.
`CC[C@H](C)[C@H](NC(=O)[C@H](CCCCN)NC(=O)[C@H](C)NC(=O)[C@H](CCCNC(=N)N)NC(=O)[C@H](CCCCN)NC(=O)[C@H](CCCCN)NC(=O)CNC(=O)[C@H](CCC(=O)O)NC(=O)[C@H](CCC(N)=O)NC(=O)[C@@H](NC(=O)[C@H](CCCCN)NC(=O)[C@H](CCCCN)NC(=O)[C@H](CCCCN)NC(=O)[C@H](CC(C)C)NC(=O)[C@H](Cc1ccccc1)NC(=O)[C@H](CCC(N)=O)NC(=O)[C@H](CCCNC(=N)N)NC(=O)[C@@H](NC(=O)[C@@H](NC(=O)[C@H](CCC(=O)O)NC(=O)[C@H](CCCCN)NC(=O)CNC(=O)[C@H](C)N)[C@@H](C)O)[C@@H](C)CC)[C@@H](C)CC)C(=O)N[C@@H](C)C(=O)N[C@@H](Cc1c[nH]c2ccccc12)C(=O)O` [Syn-larvacin-92] (H-AGKETIRQFLKKKIQEGKKRAKIAW-OH; N-terminus and C-terminus assumed): the MBC in the series with E. coli (BL21) (BL21) worked out at 2 µM; in the series with S. pyogenes (M1), 1 µM; in the series on S. aureus (USA300) (USA300) it was 8 µM; in the series with P. aeruginosa (PAO1), 128 µM. In addition, the MIC in the series on E. coli (BL21) (BL21, 16 h) worked out at 2 µM; with S. pyogenes (M1) (M1, 16 h) it was 1 µM; in the series with S. aureus (USA300) (USA300, 16 h), 2 µM; with P. aeruginosa (PAO1), 64 µM. In addition, the “Percent Hemolysis” value in the series with sheep erythrocytes came out at 29.9%.
For the compound `CC[C@H](C)[C@H](NC(=O)[C@H](CCCNC(=N)N)NC(=O)[C@H](CCC(N)=O)NC(=O)[C@@H](NC(=O)CNC(=O)[C@@H](N)Cc1c[nH]c2ccccc12)[C@@H](C)O)C(=O)N[C@@H](CCCCN)C(=O)N[C@@H](C)C(=O)N[C@@H](Cc1ccc(O)cc1)C(=O)N[C@@H](CC(C)C)C(=O)N[C@@H](CCCNC(=N)N)C(=O)N[C@@H](CCCNC(=N)N)C(=O)N[C@@H](CCC(=O)O)C(=O)N[C@H](C(=O)N[C@@H](CCCNC(=N)N)C(=O)N[C@@H](CCCCN)C(=O)N[C@@H](CCCNC(=N)N)C(=O)NCC(=O)N[C@@H](CCCNC(=N)N)C(=O)N[C@@H](CCCCN)C(=O)N[C@@H](C)C(=O)N[C@H](C(=O)N[C@H](C(=O)N[C@@H](C)C(=O)N[C@@H](Cc1c[nH]c2ccccc12)C(=O)O)[C@@H](C)CC)C(C)C)[C@@H](C)CC` [Syn-sordellicin-11] (H-WGTQRIKAYLRREIRKRGRKAVIAW-OH; N-terminus and C-terminus assumed), the MBC with E. coli (BL21) (BL21) is 2 µM; with S. pyogenes (M1), 0.5 µM; in the series with S. aureus (USA300) (USA300) it was greater than 128 µM; in the series with P. aeruginosa (PAO1), 8 µM. The MIC in the series on E. coli (BL21) (BL21, 16 h) was 2 µM; in the series with S. pyogenes (M1) (S. pyogenes M1), 0.5 µM; with S. aureus (USA300) (USA300, 16 h), greater than 128 µM; in the series with P. aeruginosa (PAO1), 8 µM. Moreover, the “Percent Hemolysis” value in the series on sheep erythrocytes came out at 21.3%.
